Measured values reported in publication PMC6403222, “Identification of a novel class of RIP1/RIP3 dual inhibitors that impede cell death and inflammation in mouse abdominal aortic aneurysm models” (Cell Death & Disease, 2019).

Columns and labels:
KIT [1] = target: T1, KIT (Homo sapiens, UniProt P10721); test: KINOMEscan competition binding, single concentration […]; conditions: read-out: % of control at 100 nM
RIP3 = target: T2, RIP3 (Homo sapiens, UniProt Q9Y572); test: KINOMEscan competition binding Kd; also ADP-Glo kinase inhibition
T2 construct: gene RIPK3; kinase domain

RIP1 [2] = target: T3, RIP1 (Homo sapiens, UniProt Q13546); test: as above
T3 construct: gene RIPK1; kinase domain
T3 sequence (Q13546 1-294 limits assumed): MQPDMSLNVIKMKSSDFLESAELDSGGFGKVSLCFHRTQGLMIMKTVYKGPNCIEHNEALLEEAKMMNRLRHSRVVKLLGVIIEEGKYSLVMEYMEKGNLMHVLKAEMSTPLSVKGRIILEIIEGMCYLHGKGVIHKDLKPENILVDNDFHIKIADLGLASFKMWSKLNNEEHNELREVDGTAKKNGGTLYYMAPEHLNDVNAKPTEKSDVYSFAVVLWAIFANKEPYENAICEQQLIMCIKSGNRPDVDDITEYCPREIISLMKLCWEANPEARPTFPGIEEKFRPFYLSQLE

CSF1R [3] = target: T4, CSF1R (Homo sapiens, UniProt P07333); test: KINOMEscan competition binding, single concentration […]; conditions: read-out: % of control at 100 nM
T4 sequence (P07333 20-972): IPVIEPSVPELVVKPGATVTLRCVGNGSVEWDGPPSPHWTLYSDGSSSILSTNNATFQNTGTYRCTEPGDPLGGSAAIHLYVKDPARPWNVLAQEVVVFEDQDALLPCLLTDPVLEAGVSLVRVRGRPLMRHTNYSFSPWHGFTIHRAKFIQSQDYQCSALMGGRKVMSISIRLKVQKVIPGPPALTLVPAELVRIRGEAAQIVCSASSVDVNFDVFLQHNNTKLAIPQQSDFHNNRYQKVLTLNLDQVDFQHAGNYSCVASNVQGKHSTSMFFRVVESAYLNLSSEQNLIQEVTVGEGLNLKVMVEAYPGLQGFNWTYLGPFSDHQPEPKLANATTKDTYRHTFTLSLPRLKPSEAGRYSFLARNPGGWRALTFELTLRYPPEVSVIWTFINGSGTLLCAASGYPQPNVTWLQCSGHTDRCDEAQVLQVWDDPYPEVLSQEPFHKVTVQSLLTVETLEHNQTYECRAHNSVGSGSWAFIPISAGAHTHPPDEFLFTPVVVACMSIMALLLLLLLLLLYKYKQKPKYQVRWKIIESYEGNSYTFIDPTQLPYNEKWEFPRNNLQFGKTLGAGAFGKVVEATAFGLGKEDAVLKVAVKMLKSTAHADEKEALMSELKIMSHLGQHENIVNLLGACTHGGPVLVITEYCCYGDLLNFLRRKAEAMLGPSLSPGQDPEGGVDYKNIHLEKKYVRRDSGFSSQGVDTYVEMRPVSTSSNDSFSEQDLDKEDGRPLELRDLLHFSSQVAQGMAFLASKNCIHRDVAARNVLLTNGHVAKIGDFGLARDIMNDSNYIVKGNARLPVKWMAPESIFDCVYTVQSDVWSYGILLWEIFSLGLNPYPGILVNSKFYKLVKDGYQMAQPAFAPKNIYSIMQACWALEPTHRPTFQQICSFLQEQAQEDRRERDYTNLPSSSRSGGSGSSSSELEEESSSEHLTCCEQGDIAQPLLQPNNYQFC

MEK5 [4] = target: T5, MEK5 (Homo sapiens, UniProt Q13163); test: as above; conditions: read-out: % of control at 100 nM
T5 construct: gene MAP2K5
T5 sequence (Q13163 whole entry): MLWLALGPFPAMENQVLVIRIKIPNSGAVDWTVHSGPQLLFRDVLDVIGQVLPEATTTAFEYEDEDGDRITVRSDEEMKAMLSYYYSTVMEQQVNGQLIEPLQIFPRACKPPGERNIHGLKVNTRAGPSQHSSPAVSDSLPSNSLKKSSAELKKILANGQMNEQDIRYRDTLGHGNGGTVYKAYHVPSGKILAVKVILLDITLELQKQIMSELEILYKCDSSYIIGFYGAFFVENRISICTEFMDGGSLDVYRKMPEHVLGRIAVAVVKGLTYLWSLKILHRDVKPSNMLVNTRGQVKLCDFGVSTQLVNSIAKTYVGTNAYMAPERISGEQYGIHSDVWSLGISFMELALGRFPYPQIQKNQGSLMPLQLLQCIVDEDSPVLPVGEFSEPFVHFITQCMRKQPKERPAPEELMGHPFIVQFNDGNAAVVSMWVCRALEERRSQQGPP

LOK = target: T6, LOK (Homo sapiens, UniProt O94804); test: biochemical; set-up: KINOMEscan competition binding assay (DiscoveRx), per cent of control at 100 nM; conditions: competition binding, per cent of DMSO control; read-out: Percent Control
T6 construct: gene STK10
Procedure: (§1) The selectivity of GSK’074 was evaluated using KINOMEscan™ profiling service (DiscoveRx Corporation, Fremont, CA). In brief, an in vitro competition binding assay was used to evaluate GSK’074 specificity at a concentration of 100 nM against 468 human kinases including 403 non-mutant kinases and 65 mutant kinases, as described previously[33],[50]. KINOMEscan™ was also used to determine binding constants (Kd) for GSK’074 against RIP1 and RIP3. In brief, an 11-point threefold serial dilution of GSK’074 was prepared in 100% DMSO at 100× final test concentration and subsequently diluted to 1× in the assay buffer. Kds were calculated with a standard dose-response curve using the Hill equation. Curves were fitted using a non-linear least square fit with the Levenberg–Marquardt algorithm. Next, we investigated the selectivity profile of GSK’074 against a panel of 468 kinases, including 403 non-mutant kinases using the KINOMEscan™ profiling service. […] KIT, MEK5, CSF1R, or EPHB6 had no established roles in cell death and their expression levels in SMCs, with the exception of MEK5, were negligible (Supplementary Figure 3).  Fig. 6 Selectivity profile of GSK’074. Binding of GSK’074 (100 nM) against 468 human kinases (403 non-mutant kinases, 65 mutant kinases) was assessed by DiscoveRx KINOMEscan™. a Selectivity scores of GSK’074. Selectivity score was defined as the number of non-mutant kinases bound to GSK’074 <35% of control (S(35)), 10% of control (S(10)), or 1% of control (S(1)). b TREEspot map of kinases potentially targeted by GSK’074.

PRKD2 = PRKD2 (Homo sapiens, UniProt Q9BZL6); test: biochemical; set-up: KINOMEscan competition binding assay (DiscoveRx), per cent of control at 100 nM; conditions: competition binding, per cent of DMSO control; read-out: Percent Control
Procedure: as §1

RIP1 [5] = target: T3, RIP1; test: biochemical; set-up: KINOMEscan competition binding assay (DiscoveRx), per cent of control at 100 nM; conditions: competition binding, per cent of DMSO control; read-out: Percent Control
Procedure: as §1

CSF1R [6] = target: T4, CSF1R; test: biochemical; set-up: KINOMEscan competition binding assay (DiscoveRx), per cent of control at 100 nM; conditions: competition binding, per cent of DMSO control; read-out: Percent Control
Procedure: as §1

MEK5 [7] = target: T5, MEK5; test: biochemical; set-up: KINOMEscan competition binding assay (DiscoveRx), per cent of control at 100 nM; conditions: competition binding, per cent of DMSO control; read-out: Percent Control
Procedure: as §1

HPK1 = target: T7, HPK1 (Homo sapiens, UniProt Q92918); test: biochemical; set-up: KINOMEscan competition binding assay (DiscoveRx), per cent of control at 100 nM; conditions: competition binding, per cent of DMSO control; read-out: Percent Control
T7 construct: gene MAP4K1
Procedure: as §1

EPHB6 [8] = target: T8, EPHB6 (Homo sapiens, UniProt O15197); test: biochemical; set-up: KINOMEscan competition binding assay (DiscoveRx), per cent of control at 100 nM; conditions: competition binding, per cent of DMSO control; read-out: Percent Control
T8 sequence (O15197 32-1021): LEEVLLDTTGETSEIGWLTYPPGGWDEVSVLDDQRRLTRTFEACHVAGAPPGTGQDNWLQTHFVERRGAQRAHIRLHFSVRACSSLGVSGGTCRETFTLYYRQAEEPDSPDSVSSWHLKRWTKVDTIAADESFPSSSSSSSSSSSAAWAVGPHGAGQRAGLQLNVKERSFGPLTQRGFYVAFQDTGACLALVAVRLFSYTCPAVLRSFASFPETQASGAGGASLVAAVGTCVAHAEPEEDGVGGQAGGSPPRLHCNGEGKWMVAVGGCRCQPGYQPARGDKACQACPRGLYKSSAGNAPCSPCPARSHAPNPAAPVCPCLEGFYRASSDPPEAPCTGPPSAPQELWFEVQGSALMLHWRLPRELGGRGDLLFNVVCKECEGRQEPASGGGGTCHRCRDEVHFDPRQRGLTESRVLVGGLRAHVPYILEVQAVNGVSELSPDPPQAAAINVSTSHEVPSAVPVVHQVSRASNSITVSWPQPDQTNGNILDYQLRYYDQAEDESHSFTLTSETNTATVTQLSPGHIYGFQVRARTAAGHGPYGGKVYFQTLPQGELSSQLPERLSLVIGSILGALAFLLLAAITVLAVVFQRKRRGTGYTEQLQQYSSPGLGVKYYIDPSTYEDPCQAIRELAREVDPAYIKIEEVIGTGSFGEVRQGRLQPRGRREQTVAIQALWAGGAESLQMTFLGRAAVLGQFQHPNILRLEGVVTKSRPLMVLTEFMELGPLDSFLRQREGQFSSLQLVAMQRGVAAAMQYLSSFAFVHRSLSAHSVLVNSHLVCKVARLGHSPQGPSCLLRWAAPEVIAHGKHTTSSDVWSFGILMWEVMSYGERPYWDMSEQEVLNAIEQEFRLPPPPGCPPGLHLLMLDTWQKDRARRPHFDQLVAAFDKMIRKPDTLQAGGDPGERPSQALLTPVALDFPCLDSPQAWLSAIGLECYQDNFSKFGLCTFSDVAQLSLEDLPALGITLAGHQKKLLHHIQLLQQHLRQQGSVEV
Procedure: as §1

KIT(L576P) = KIT(L576P) (Homo sapiens, UniProt P10721, L576P); test: biochemical; set-up: KINOMEscan competition binding assay (DiscoveRx), per cent of control at 100 nM; conditions: competition binding, per cent of DMSO control; read-out: Percent Control
Procedure: as §1

[9] = target: T9, ABL1(T315I)-nonphosphorylated (Homo sapiens, UniProt P00519, T315I); test: biochemical; set-up: KINOMEscan competition binding assay (DiscoveRx), per cent of control at 100 nM; conditions: competition binding, per cent of DMSO control; read-out: Percent Control
T9 construct: nonphosphorylated
Procedure: as §1

FLT3(K663Q) = FLT3(K663Q) (Homo sapiens, UniProt P36888, K663Q); test: biochemical; set-up: KINOMEscan competition binding assay (DiscoveRx), per cent of control at 100 nM; conditions: competition binding, per cent of DMSO control; read-out: Percent Control
Procedure: as §1

RIPK2 = RIPK2 (Homo sapiens, UniProt O43353); test: biochemical; set-up: KINOMEscan competition binding assay (DiscoveRx), per cent of control at 100 nM; conditions: competition binding, per cent of DMSO control; read-out: Percent Control
Procedure: as §1

[10] = target: T10, ABL1(Q252H)-nonphosphorylated (Homo sapiens, UniProt P00519, Q252H); test: biochemical; set-up: KINOMEscan competition binding assay (DiscoveRx), per cent of control at 100 nM; conditions: competition binding, per cent of DMSO control; read-out: Percent Control
T10 construct: nonphosphorylated
Procedure: as §1

[11] = target: T11, ABL1(E255K)-phosphorylated (Homo sapiens, UniProt P00519, E255K); test: biochemical; set-up: KINOMEscan competition binding assay (DiscoveRx), per cent of control at 100 nM; conditions: competition binding, per cent of DMSO control; read-out: Percent Control
T11 construct: phosphorylated
Procedure: as §1

MAP4K5 = MAP4K5 (Homo sapiens, UniProt Q9Y4K4); test: biochemical; set-up: KINOMEscan competition binding assay (DiscoveRx), per cent of control at 100 nM; conditions: competition binding, per cent of DMSO control; read-out: Percent Control
Procedure: as §1

[12] = target: T12, ABL1(H396P)-nonphosphorylated (Homo sapiens, UniProt P00519, H396P); test: biochemical; set-up: KINOMEscan competition binding assay (DiscoveRx), per cent of control at 100 nM; conditions: competition binding, per cent of DMSO control; read-out: Percent Control
T12 construct: nonphosphorylated
Procedure: as §1

AURKC = AURKC (Homo sapiens, UniProt Q9UQB9); test: biochemical; set-up: KINOMEscan competition binding assay (DiscoveRx), per cent of control at 100 nM; conditions: competition binding, per cent of DMSO control; read-out: Percent Control
Sequence of AURKC (Q9UQB9 whole entry): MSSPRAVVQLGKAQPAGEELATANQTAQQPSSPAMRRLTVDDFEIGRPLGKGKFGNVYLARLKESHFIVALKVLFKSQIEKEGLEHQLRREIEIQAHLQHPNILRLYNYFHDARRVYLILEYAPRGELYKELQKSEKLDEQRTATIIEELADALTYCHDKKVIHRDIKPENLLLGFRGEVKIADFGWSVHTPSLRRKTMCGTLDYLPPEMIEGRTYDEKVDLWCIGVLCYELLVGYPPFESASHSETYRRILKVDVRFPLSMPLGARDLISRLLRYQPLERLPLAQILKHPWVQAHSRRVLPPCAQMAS
Procedure: as §1

KIT(V559D) = KIT(V559D) (Homo sapiens, UniProt P10721, V559D); test: biochemical; set-up: KINOMEscan competition binding assay (DiscoveRx), per cent of control at 100 nM; conditions: competition binding, per cent of DMSO control; read-out: Percent Control
Procedure: as §1

AURKB = AURKB (Homo sapiens, UniProt Q96GD4); test: biochemical; set-up: KINOMEscan competition binding assay (DiscoveRx), per cent of control at 100 nM; conditions: competition binding, per cent of DMSO control; read-out: Percent Control
Procedure: as §1

ABL1-nonphosphorylated = target: T13, ABL1-nonphosphorylated (Homo sapiens, UniProt P00519); test: biochemical; set-up: KINOMEscan competition binding assay (DiscoveRx), per cent of control at 100 nM; conditions: competition binding, per cent of DMSO control; read-out: Percent Control
T13 construct: nonphosphorylated
Procedure: as §1

FLT3 = FLT3 (Homo sapiens, UniProt P36888); test: biochemical; set-up: KINOMEscan competition binding assay (DiscoveRx), per cent of control at 100 nM; conditions: competition binding, per cent of DMSO control; read-out: Percent Control
Procedure: as §1

PDGFRB = PDGFRB (Homo sapiens, UniProt P09619); test: biochemical; set-up: KINOMEscan competition binding assay (DiscoveRx), per cent of control at 100 nM; conditions: competition binding, per cent of DMSO control; read-out: Percent Control
Sequence of PDGFRB (P09619 whole entry): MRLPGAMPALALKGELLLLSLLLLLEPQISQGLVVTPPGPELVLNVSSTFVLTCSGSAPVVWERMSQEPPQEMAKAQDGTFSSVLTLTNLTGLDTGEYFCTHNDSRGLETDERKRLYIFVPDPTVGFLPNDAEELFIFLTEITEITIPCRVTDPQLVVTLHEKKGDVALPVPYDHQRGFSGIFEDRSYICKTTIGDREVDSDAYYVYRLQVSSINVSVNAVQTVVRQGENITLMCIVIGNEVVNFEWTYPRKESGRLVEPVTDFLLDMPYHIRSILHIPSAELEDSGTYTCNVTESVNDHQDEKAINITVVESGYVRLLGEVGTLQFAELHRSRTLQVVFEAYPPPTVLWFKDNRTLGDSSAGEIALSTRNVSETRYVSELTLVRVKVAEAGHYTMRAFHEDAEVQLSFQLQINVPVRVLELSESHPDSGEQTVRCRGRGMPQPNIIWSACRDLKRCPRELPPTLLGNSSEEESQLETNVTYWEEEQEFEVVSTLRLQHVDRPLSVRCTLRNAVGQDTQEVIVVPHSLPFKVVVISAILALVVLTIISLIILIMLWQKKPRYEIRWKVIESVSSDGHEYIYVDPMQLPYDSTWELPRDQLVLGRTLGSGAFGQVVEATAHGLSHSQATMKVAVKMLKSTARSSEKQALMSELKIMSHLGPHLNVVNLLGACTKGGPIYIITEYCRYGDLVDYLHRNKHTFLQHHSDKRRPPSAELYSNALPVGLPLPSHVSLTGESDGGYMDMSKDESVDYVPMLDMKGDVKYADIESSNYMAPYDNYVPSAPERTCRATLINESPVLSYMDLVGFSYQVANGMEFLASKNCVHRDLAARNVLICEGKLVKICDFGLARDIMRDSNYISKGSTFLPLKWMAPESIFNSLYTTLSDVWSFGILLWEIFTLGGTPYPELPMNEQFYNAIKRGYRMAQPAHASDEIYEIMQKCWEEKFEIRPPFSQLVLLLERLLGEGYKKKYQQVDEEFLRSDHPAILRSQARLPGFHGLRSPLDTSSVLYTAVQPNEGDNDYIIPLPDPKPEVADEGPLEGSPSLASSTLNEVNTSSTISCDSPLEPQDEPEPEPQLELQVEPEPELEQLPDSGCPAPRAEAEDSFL
Procedure: as §1

KIT [13] = target: T1, KIT; test: biochemical; set-up: KINOMEscan competition binding assay (DiscoveRx), per cent of control at 100 nM; conditions: competition binding, per cent of DMSO control; read-out: Percent Control
Procedure: as §1

MST1 = target: T14, MST1 (Homo sapiens, UniProt Q13043); test: biochemical; set-up: KINOMEscan competition binding assay (DiscoveRx), per cent of control at 100 nM; conditions: competition binding, per cent of DMSO control; read-out: Percent Control
T14 construct: gene STK4
Procedure: as §1

ABL1-phosphorylated = target: T15, ABL1-phosphorylated (Homo sapiens, UniProt P00519); test: biochemical; set-up: KINOMEscan competition binding assay (DiscoveRx), per cent of control at 100 nM; conditions: competition binding, per cent of DMSO control; read-out: Percent Control
T15 construct: phosphorylated
Procedure: as §1

[14] = target: T16, ABL1(T315I)-phosphorylated (Homo sapiens, UniProt P00519, T315I); test: biochemical; set-up: KINOMEscan competition binding assay (DiscoveRx), per cent of control at 100 nM; conditions: competition binding, per cent of DMSO control; read-out: Percent Control
T16 construct: phosphorylated
Procedure: as §1

PDGFRA = PDGFRA (Homo sapiens, UniProt P16234); test: biochemical; set-up: KINOMEscan competition binding assay (DiscoveRx), per cent of control at 100 nM; conditions: competition binding, per cent of DMSO control; read-out: Percent Control
Procedure: as §1

EPHB6 [15] = target: T8, EPHB6; test: KINOMEscan competition binding, single concentration […]; conditions: read-out: % of control at 100 nM

T1 sequence (P10721 26-976): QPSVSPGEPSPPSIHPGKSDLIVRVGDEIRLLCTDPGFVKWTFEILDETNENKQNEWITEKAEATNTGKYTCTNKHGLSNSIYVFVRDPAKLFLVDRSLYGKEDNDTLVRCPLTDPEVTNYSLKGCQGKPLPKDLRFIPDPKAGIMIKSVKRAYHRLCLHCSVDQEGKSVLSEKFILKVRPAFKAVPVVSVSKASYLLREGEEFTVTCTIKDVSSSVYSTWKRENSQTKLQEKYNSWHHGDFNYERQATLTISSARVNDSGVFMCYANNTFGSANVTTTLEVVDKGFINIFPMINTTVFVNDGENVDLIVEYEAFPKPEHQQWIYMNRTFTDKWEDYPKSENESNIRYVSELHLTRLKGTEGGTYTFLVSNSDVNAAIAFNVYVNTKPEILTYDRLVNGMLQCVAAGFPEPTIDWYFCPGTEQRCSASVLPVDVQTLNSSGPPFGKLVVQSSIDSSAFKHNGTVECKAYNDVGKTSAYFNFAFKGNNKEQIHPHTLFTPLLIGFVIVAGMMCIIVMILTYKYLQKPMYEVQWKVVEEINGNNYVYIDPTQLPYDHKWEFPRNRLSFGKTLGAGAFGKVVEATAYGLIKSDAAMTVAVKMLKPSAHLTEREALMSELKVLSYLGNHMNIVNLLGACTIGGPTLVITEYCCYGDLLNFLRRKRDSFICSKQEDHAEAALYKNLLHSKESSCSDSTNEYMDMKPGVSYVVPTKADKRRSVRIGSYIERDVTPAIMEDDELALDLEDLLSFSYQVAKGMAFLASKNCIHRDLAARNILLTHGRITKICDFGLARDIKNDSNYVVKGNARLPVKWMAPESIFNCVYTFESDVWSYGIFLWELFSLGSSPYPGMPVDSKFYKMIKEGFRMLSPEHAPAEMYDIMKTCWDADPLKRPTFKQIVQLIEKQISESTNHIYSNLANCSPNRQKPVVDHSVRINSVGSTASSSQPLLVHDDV

Cn1cc(-c2cnc(N)c3c(-c4ccc5c(c4)CCN5C(=O)Cc4ccccc4)csc23)cn1 [GSK'074, GSK2593074A]
remaining binding at 0.1 µM (KIT [1]): < 1%
Kd (RIP3): 130 nM
Kd (RIP1 [2]): 12 nM
remaining binding at 0.1 µM (CSF1R [3]): < 1%
remaining binding at 0.1 µM (MEK5 [4]): < 1%
remaining binding at 0.1 µM (LOK): 30%
remaining binding at 0.1 µM (PRKD2): 32%
remaining binding at 0.1 µM (RIP1 [5]): 0%
remaining binding at 0.1 µM (CSF1R [6]): 0.5%
remaining binding at 0.1 µM (MEK5 [7]): 0.1%
remaining binding at 0.1 µM (HPK1): 30%
remaining binding at 0.1 µM (EPHB6 [8]): 0.5%
remaining binding at 0.1 µM (KIT(L576P)): 0%
remaining binding at 0.1 µM [9]: 0.3%
remaining binding at 0.1 µM (FLT3(K663Q)): 30%
remaining binding at 0.1 µM (RIPK2): 12%
remaining binding at 0.1 µM [10]: 6.1%
remaining binding at 0.1 µM [11]: 24%
remaining binding at 0.1 µM (MAP4K5): 5.5%
remaining binding at 0.1 µM [12]: 2.2%
remaining binding at 0.1 µM (AURKC): 19%
remaining binding at 0.1 µM (KIT(V559D)): 0.05%
remaining binding at 0.1 µM (AURKB): 9.3%
remaining binding at 0.1 µM (ABL1-nonphosphorylated): 3.3%
remaining binding at 0.1 µM (FLT3): 19%
remaining binding at 0.1 µM (PDGFRB): 1.3%
remaining binding at 0.1 µM (KIT [13]): 0.35%
remaining binding at 0.1 µM (MST1): 13%
remaining binding at 0.1 µM (ABL1-phosphorylated): 25%
remaining binding at 0.1 µM [14]: 19%
remaining binding at 0.1 µM (PDGFRA): 13%
remaining binding at 0.1 µM (EPHB6 [15]): < 1%
